Results: patent US5053070A, “Pyrimidine derivatives, preparation processes thereof, herbicide containing the same, and herbicidal compositions containing the same along with other active ingredient” (Mitsui Toatsu Chemicals, Incorporated, priority 1988, dated 1991)
Converted amounts (≈) assume the structure as drawn.

Legend:
[1] = tested on: narrowleaf waterplantain; assay: Petri dish test (Test 6); assay type: in vivo; conditions: 336 h; seeds on filter paper, 25° C., 14 days; read-out: I80 (ppm)
Method in brief: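 Narrowleaf waterplantain seeds placed on filter paper pre-treated with compound in acetone (solvent air-dried) in 9 cm Petri dishes with 10 ml water, grown at 25° C in light. Growth was scored after fourteen days as degree of damage against an untreated group.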

[2] = tested on: redroot pigweed; assay: Upland soil application test (Test 2); assay type: in vivo; conditions: 30 g ai/a, soil spray before emergence, 30 days later
Method in brief: (§1)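 Pre-emergence soil spray, greenhouse. Weed seeds mixed through upland soil; crops sown alongside. Day 1 post-sowing: wettable-powder formulation, water-diluted, applied at 10 l/are by pressure ULV sprayer. Read at 30 days as air-dried weight vs untreated pots, scored on a graded damage scale.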

[3] = tested on: common lambsquarters; assay: Upland soil application test (Test 2); assay type: in vivo; conditions: 30 g ai/a, soil spray before emergence, 30 days later
Method in brief: as §1

[4] = tested on: large crabgrass; assay: Upland soil application test (Test 2); assay type: in vivo; conditions: 30 g ai/a, soil spray before emergence, 30 days later
Method in brief: as §1

[5] = tested on: barnyardgrass; assay: Upland soil application test (Test 2); assay type: in vivo; conditions: 30 g ai/a, soil spray before emergence, 30 days later
Method in brief: as §1

[6] = tested on: ALS (acetolactate syntase); assay: ALS enzyme assay (Test 1); assay type: biochemical, pea; conditions: 1,000 ppm (0.5 mg/0.5 ml)
Method in brief: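 Partially purified ALS from dark-grown pea and barnyardgrass seedlings incubated 1 h at 30° C with pyruvate, TPP, MgCl2 and FAD. Compounds tested at 1,000 ppm (0.5 mg/0.5 ml). Acetoin formed detected colorimetrically at 525 nm via creatine/α-naphthol, relative to blank and acid-stopped controls.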

[7] = tested on: cotton; assay: Upland soil application test (Test 2), crop injury; assay type: in vivo; conditions: 30 g ai/a, soil spray before emergence, 30 days later
Method in brief: (§2)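 Soil-surface application of water-diluted wettable powder at 10 l per are, made one day after seeding and ahead of weed emergence. Plants stayed in the greenhouse for 30 days; injury was rated by air-dried weight versus untreated pots.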

[8] = tested on: peanut; assay: Upland soil application test (Test 2), crop injury; assay type: in vivo; conditions: 30 g ai/a, soil spray before emergence, 30 days later
Method in brief: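 Damage was graded 30 days after treatment by comparing air-dried plant weight with that of plants in untreated pots. Test compound, given as a diluted wettable powder, had been sprayed on the soil surface one day after sowing, before any weeds emerged.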

[9] = tested on: soybean; assay: Upland soil application test (Test 2), crop injury; assay type: in vivo; conditions: 30 g ai/a, soil spray before emergence, 30 days later
Method in brief: as §2

[10] = tested on: cotton; assay: Upland foliar application test (Test 3), crop injury; assay type: in vivo; conditions: 30 g ai/a, foliar spray at 2-3 leaves, 30th day
Method in brief: (§3)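 Plants were grown from seed in upland-field soil in a greenhouse. At the 2-3 leaf stage, an emulsion of each compound, diluted with water, was sprayed on the foliage at a rate equal to 5 l per are with a pressure-operated ULV sprayer. Damage and crop injury were scored on day 30.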

[11] = tested on: peanut; assay: as above; assay type: in vivo; conditions: 30 g ai/a, foliar spray at 2-3 leaves, 30th day
Method in brief: as §3

[12] = tested on: soybean; assay: as above; assay type: in vivo; conditions: 30 g ai/a, foliar spray at 2-3 leaves, 30th day
Method in brief: as §3

[13] = tested on: rice; assay: Treatment of soil under submerged condition, post-emergence (Test 5), injury; assay type: in vivo; conditions: 30 g ai/a granule, 30 days later
Method in brief: (§4)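 Flooded pots; weed seeds/tubers sown, rice (2–3 leaf) transplanted as paired seedlings, greenhouse. Granular formulation applied post-emergence when barnyardgrass reached 2 leaves. Scored 30 d after treatment for weed damage and rice injury.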

[14] = tested on: barnyardgrass; assay: Treatment of soil under submerged condition, post-emergence (Test 5); assay type: in vivo; conditions: 30 g ai/a granule, post-emergence (barnyardgrass two-leaf stage), 30 days later
Method in brief: as §4

[15] = tested on: Sagittaria pygmaea; assay: as above; assay type: in vivo; conditions: 30 g ai/a granule, 30 days later
Method in brief: as §4

[16] = tested on: bulrush; assay: as above; assay type: in vivo; conditions: 30 g ai/a granule, 30 days later
Method in brief: as §4

| Compound | IC80 [1] [µg/mL] | Herbicidal effects Redroot pigweed [2] | Herbicidal effects Common lambsquarters [3] | Herbicidal effects Large crabgrass [4] | Herbicidal effects Barnyardgrass [5] | Inhibitory activity (%) Pea [6] [%] | Injury Cotton [7] | Injury Peanut [8] | Injury Soybean [9] | Injury Cotton [10] | Injury Peanut [11] | Injury Soybean [12] | Injury Rice [13] | Herbicidal effects Barnyardgrass [14] | Herbicidal effects Sagittaria Pygmaea [15] | Herbicidal effects Bulrush [16] |
| --- | --- | --- | --- | --- | --- | --- | --- | --- | --- | --- | --- | --- | --- | --- | --- | --- |
| COc1cc(OC)nc(Oc2ccccc2C=NOCC=Cc2ccc(Cl)cc2)n1 [Compound No. 28] | 2 (≈ 4.7 µM) | 4 (6-10 (Severe damages)) | 4 (6-10 (Severe damages)) | 4 (6-10 (Severe damages)) | 4 (6-10 (Severe damages)) | 8 | 0 (91-100 (No damages)) | 0 (91-100 (No damages)) | 0 (91-100 (No damages)) | 0 (91-100 (No damages)) | 0 (91-100 (No damages)) | 0 (91-100 (No damages)) | 0 (91-100 (No damages)) | 5 (0-5 (Death)) | 4 (6-10 (Severe damages)) | 4 (6-10 (Severe damages)) |
| COc1cc(OC)nc(Oc2ccccc2C=NOCC=Cc2cccc(C)c2)n1 [Compound No. 34, 0-(3-methylcinnamyl)-2-(4,6-dimethoxy-2-pyrimidinyloxy)benzaldoxime] | 2 (≈ 4.93 µM) | 4 (6-10 (Severe damages)) | 4 (6-10 (Severe damages)) | 4 (6-10 (Severe damages)) | 5 (0-5 (Death)) | 0 | 0 (91-100 (No damages)) | 0 (91-100 (No damages)) | 0 (91-100 (No damages)) | 0 (91-100 (No damages)) | 0 (91-100 (No damages)) | 0 (91-100 (No damages)) | 1 (71-90 (Slight damages)) | 5 (0-5 (Death)) | 3 (11-40 (Medium damages)) | 4 (6-10 (Severe damages)) |
| COc1cc(OC)nc(Oc2ccccc2C=NOCC=Cc2ccccc2C)n1 [Compound No. 39] | 2 (≈ 4.93 µM) | 5 (0-5 (Death)) | 4 (6-10 (Severe damages)) | 5 (0-5 (Death)) | 4 (6-10 (Severe damages)) | 0 | 0 (91-100 (No damages)) | 0 (91-100 (No damages)) | 0 (91-100 (No damages)) | 0 (91-100 (No damages)) | 0 (91-100 (No damages)) | 0 (91-100 (No damages)) | 0 (91-100 (No damages)) | 5 (0-5 (Death)) | 4 (6-10 (Severe damages)) | 4 (6-10 (Severe damages)) |
| C=C(C)CON=Cc1ccccc1Oc1nc(OC)cc(OC)n1 [compound 5] | 17 (≈ 51.6 µM) | 4 (6-10 (Severe damages)) | 4 (6-10 (Severe damages)) | 5 (0-5 (Death)) | 5 (0-5 (Death)) | 0 | 0 (91-100 (No damages)) | 0 (91-100 (No damages)) | 0 (91-100 (No damages)) | 0 (91-100 (No damages)) | 0 (91-100 (No damages)) | 0 (91-100 (No damages)) | 0 (91-100 (No damages)) | 5 (0-5 (Death)) | 5 (0-5 (Death)) | 5 (0-5 (Death)) |
| COc1cc(OC)nc(Oc2ccccc2C=NOC(C)C)n1 [compound 6] | 40 (≈ 126 µM) | 3 (11-40 (Medium damages)) | 4 (6-10 (Severe damages)) | 4 (6-10 (Severe damages)) | 4 (6-10 (Severe damages)) | 0 | 0 (91-100 (No damages)) | 0 (91-100 (No damages)) | 0 (91-100 (No damages)) | 0 (91-100 (No damages)) | 0 (91-100 (No damages)) | 0 (91-100 (No damages)) | 0 (91-100 (No damages)) | 4 (6-10 (Severe damages)) | 3 (11-40 (Medium damages)) | 4 (6-10 (Severe damages)) |
| CC=CCON=Cc1ccccc1Oc1nc(OC)cc(OC)n1 [compound 8] | 40 (≈ 121 µM) | 5 (0-5 (Death)) | 4 (6-10 (Severe damages)) | 4 (6-10 (Severe damages)) | 4 (6-10 (Severe damages)) | 0 | 0 (91-100 (No damages)) | 0 (91-100 (No damages)) | 0 (91-100 (No damages)) | 0 (91-100 (No damages)) | 0 (91-100 (No damages)) | 0 (91-100 (No damages)) | 1 (71-90 (Slight damages)) | 5 (0-5 (Death)) | 5 (0-5 (Death)) | 5 (0-5 (Death)) |
| CC#CCON=Cc1ccccc1Oc1nc(OC)cc(OC)n1 [compound 10] | 17 (≈ 51.9 µM) | 3 (11-40 (Medium damages)) | 3 (11-40 (Medium damages)) | 3 (11-40 (Medium damages)) | 3 (11-40 (Medium damages)) | 0 | 0 (91-100 (No damages)) | 0 (91-100 (No damages)) | 0 (91-100 (No damages)) | 0 (91-100 (No damages)) | 0 (91-100 (No damages)) | 0 (91-100 (No damages)) | 1 (71-90 (Slight damages)) | 5 (0-5 (Death)) | 5 (0-5 (Death)) | 5 (0-5 (Death)) |
| COc1cc(OC)nc(Oc2ccccc2C=NOCC=CCl)n1 [compound 11] | 40 (≈ 114 µM) | 5 (0-5 (Death)) | 4 (6-10 (Severe damages)) | 5 (0-5 (Death)) | 5 (0-5 (Death)) | 0 | 0 (91-100 (No damages)) | 0 (91-100 (No damages)) | 0 (91-100 (No damages)) | 0 (91-100 (No damages)) | 0 (91-100 (No damages)) | 0 (91-100 (No damages)) | 0 (91-100 (No damages)) | 5 (0-5 (Death)) | 4 (6-10 (Severe damages)) | 4 (6-10 (Severe damages)) |
